Key:
[1] = target: T1, PI3Kα (wild-type) (Homo sapiens, UniProt P42336); experiment: PI3 Kinase TR-FRET assay, PI3Kα (wild-type); type: biochemical; conditions: wild-type P110/P85α, 10 μM ATP
T1 construct: made in house; host or cells: SF9 insect cells
Procedure, shortened: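 Sf9-expressed, Ni-purified p110/p85α (5 ng) with PIP2 was preincubated with compound for 60 min at room temperature in buffer with 40 mM MgCl2 and 5 mM DTT. The reaction ran 30 min at room temperature with 10 μM PIP2 and 10 μM ATP. The TR-FRET 665/615 nm ratio was used to derive IC50 from dose-response curves.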

[2] = target: T2, mTOR kinase (Homo sapiens, UniProt P42345); experiment: mTOR kinase TR-FRET assay; type: biochemical; conditions: 20 μM ATP
T2 construct: purchased Millipore, USA
Procedure, shortened: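 Test compounds were pre-incubated 60 min with mTOR (5 ng), then ULight-p70 S6K (Thr389) peptide (50 nM) and ATP (20 μM) were added in HEPES 50 mM pH 7.5, EGTA, MnCl2 3 mM. After 60 min at room temperature, EDTA stop and Eu-anti-phospho antibody TR-FRET (665/615 nm) gave IC50 from sigmoidal variable-slope fits.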

[3] = test system: pAkt(T308); experiment: In-cell Western assay, pAkt(T308), PC3 cells; type: cell-based; conditions: Homo sapiens, PC-3, 2 hours incubation
Experimental: (§1) Cells from human prostate cancer cell line PC3 (American Type Culture Collection (ATCC), Manassas, Va. 20108 USA) were seeded at an optimal density of 22,000 cell/well in 96-well plates containing Ham's F12K medium (90 μL) and incubated overnight. The compound dilutions were carried out in 100% DMSO followed by a dilution in the medium. Test compounds were added in serial dilutions to the wells and incubated for 2 hours. The cells were washed and fixed with 4% paraformaldehyde. After incubation at room temperature for 1 hour in the dark, blocking was done for 2 hours at room temperature. Primary antibodies for pAkt(S473) ([…] phosphorylated at serine 473), pAkt(T308) (Akt phosphorylated at threonine 308) and for pS6RP (S235/236) (phosphorylated at serine 235/236) (commercially available from Cell Signaling Technology®, whose protocol was followed for the in-cell western assay, were diluted to the required concentration and added to the corresponding wells followed by overnight incubation at 4° C. Eu-labeled rabbit (PE) (Perkin-Elmer USA catalog #AD0106) secondary antibody was added and incubated for 2 hours at room temperature. Delfia® enhancement solution (cat #1244-105, Perkin Elmer USA) was subsequently added to the plate before taking the reading at 615 nm with excitation wavelength of 340 nm, after which 0.5 μg/mL of Hoechst® 33258 dye (Catalog #86140-5, Sigma) was added to the plate and fluorescence emission was read at 460 nm with 355 nm excitation, to evaluate the correction factor. IC50 values were calculated using a sigmoidal dose-response curve fit in GraphPad Prism® v5 software.

[4] = test system: pAkt(S473); experiment: In-cell Western assay, pAkt(S473), PC3 cells; type: cell-based; conditions: Homo sapiens, PC-3, 2 hours incubation
Experimental: as §1

[5] = test system: pS6RP (S235/236); experiment: In-cell Western assay, pS6RP (S235/236), PC3 cells; type: cell-based; conditions: Homo sapiens, PC-3, 2 hours incubation
Experimental: as §1

[6] = test system: PC3 cells; experiment: XTT assay for cell viability, PC3 cells; type: cell-based; conditions: Homo sapiens, PC-3; PC3 cell proliferation, 96 hours
Procedure, shortened: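 Log-phase PC3 cells (1000/well) were seeded for 24 h, then exposed to serially diluted compounds (DMSO dilutions) for 96 h. Viability was measured by XTT dye conversion at 37 °C, with absorbance read at 465 nm. EC50 was obtained from a sigmoidal dose-response fit.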

[7] = target: PI3 kinase isoform γ (Homo sapiens, UniProt P48736); experiment: PI3 Kinase TR-FRET assay, isoform γ; type: biochemical; conditions: read-out: inhibition of PI3 kinase isoform γ, IC50
Experimental: (§2) The ability of compounds of the invention to inhibit PI3K activity was determined in a homogeneous TR-FRET assay using a PI3K assay kit (Millipore, USA; cat #33-016) according to manufacturer's instructions. PI3-Kinases (isoforms α, β, γ and δ) catalyze the phosphorylation of phosphatidylinositol, PIP2 to PIP3 in the presence of ATP and Mg^2+. The PIP3 product is detected by displacement of biotin-PIP3 from an energy transfer complex consisting of Europium labeled anti-GST monoclonal antibody, a GST-tagged PH domain, biotinylated PIP3 and Streptavidin-APC. Excitation of Europium in the complex results in an energy transfer to the APC and a fluorescence emission at 665 nm. The PIP3 product displaces biotin-PIP3 from the complex resulting in a loss of energy transfer and thus a decrease in signal.
(§3) To test for the ability of compounds to inhibit the activity of PI3Kα (wild-type), exemplary compounds of formula (I) were dissolved in DMSO and directly distributed into 384-well plates at a volume of 0.5 μL. 14.5 μL of P110/P85α/PIP2 mixture in buffer (obtained from the Millipore kit) containing MgCl2 (40 mM) and DTT (5 mM) was added to compound wells and incubated for 60 minutes at room temperature. P110/P85α was expressed in SF9 insect cells and purified nickel column extraction. Five ng of wild-type P110/P85α was used in the assay. The kinase reaction was started by the addition of ATP. The assay concentrations of both PIP2 and ATP were 10 μM. The reaction mixture was incubated for 30 minutes at room temperature and was terminated by the addition of stop mix and detection mix. Fluorescence was measured at 615 and 665 nm upon excitation at 340 nm in a Victor™ V5 fluorometer (Perkin Elmer, USA). The fluorescence emission ratio at 665 to 615 nm, proportional to the kinase activity, was plotted against the compound concentration to generate dose-response curves and IC50 values were determined using GraphPad Prism® 5 software.
(§4) The activity of PI3 kinase isoforms β, γ and δ were assayed in a similar manner to the assay protocol described above for PI3Kα, by substituting the appropriate p110/p85 isoform for the p110α/p85α. Compounds of formula (I) caused inhibition of PI3 kinase isoforms β, γ and δ as determined by these assays. For example, the compounds of Examples 3 and 21 each caused inhibition of PI3 kinase isoform β with IC50 values<500 nM. The compounds of Examples 3, 7, 21, 47, 48 and 49 each caused inhibition of PI3 kinase isoform γ with IC50 values<500 nM. The compounds of Example 3, 7, 47, 48, and 49 caused inhibition of PI3 kinase isoform δ with IC50 values<1 μM.

[8] = target: PI3 kinase isoform δ (Homo sapiens, UniProt O00329); experiment: PI3 Kinase TR-FRET assay, isoform δ; type: biochemical; conditions: read-out: inhibition of PI3 kinase isoform δ, IC50
Experimental: as §2, §3, §4

[9] = target: PI3Kα mutation H1047R (Homo sapiens, UniProt P42336, H1047R); experiment: PI3 Kinase TR-FRET assay, PI3Kα mutation H1047R; type: biochemical; conditions: read-out: inhibition of PI3Kα mutation H1047R, IC50
Experimental: as §2, §3
(§5) The activity of PI3Kα mutations H1047R and E545K were assayed in a similar manner to the assay protocol described above for PI3Kα (wild type). The compounds of formula (I) caused inhibition of PI3Kα mutations H1047R (a mutation associated with breast and gastric cancers) and E545K (a mutation associated with colorectal tumors, glioblastomas, gastric cancers, breast cancers, and lung cancers). For example, each of the compounds of Example 3, 7, 21, 47, 48 and 49 caused inhibition of each of the PI3Kα mutations H1047R and E545K with IC50 values<50 nM.

[10] = target: PI3Kα mutation E545K (Homo sapiens, UniProt P42336, E545K); experiment: PI3 Kinase TR-FRET assay, PI3Kα mutation E545K; type: biochemical; conditions: read-out: inhibition of PI3Kα mutation E545K, IC50
Experimental: as §2, §3, §5

[11] = test system: U87MG tumor cells; experiment: In vivo efficacy study (tumor growth suppression), U87MG xenograft; conditions: U87MG xenograft mice, after 12 to 14 days of dosing, 50 mg/kg qd po
[12] = target: PI3 kinase isoform β (Homo sapiens, UniProt P42338); experiment: PI3 Kinase TR-FRET assay, isoform β; type: biochemical; conditions: read-out: inhibition of PI3 kinase isoform β, IC50
Experimental: as §2
To test for the ability of compounds to inhibit the activity of PI3Kα (wild-type), exemplary compounds of formula (I) were dissolved in DMSO and directly distributed into 384-well plates at a volume of 0.5 μL. […] Fluorescence was measured at 615 and 665 nm upon excitation at 340 nm in a Victor™ V5 fluorometer (Perkin Elmer, USA). The fluorescence emission ratio at 665 to 615 nm, proportional to the kinase activity, was plotted against the compound concentration to generate dose-response curves and IC50 values were determined using GraphPad Prism® 5 software. […]

Sequence of PI3 kinase isoform δ (O00329 whole entry, canonical isoform): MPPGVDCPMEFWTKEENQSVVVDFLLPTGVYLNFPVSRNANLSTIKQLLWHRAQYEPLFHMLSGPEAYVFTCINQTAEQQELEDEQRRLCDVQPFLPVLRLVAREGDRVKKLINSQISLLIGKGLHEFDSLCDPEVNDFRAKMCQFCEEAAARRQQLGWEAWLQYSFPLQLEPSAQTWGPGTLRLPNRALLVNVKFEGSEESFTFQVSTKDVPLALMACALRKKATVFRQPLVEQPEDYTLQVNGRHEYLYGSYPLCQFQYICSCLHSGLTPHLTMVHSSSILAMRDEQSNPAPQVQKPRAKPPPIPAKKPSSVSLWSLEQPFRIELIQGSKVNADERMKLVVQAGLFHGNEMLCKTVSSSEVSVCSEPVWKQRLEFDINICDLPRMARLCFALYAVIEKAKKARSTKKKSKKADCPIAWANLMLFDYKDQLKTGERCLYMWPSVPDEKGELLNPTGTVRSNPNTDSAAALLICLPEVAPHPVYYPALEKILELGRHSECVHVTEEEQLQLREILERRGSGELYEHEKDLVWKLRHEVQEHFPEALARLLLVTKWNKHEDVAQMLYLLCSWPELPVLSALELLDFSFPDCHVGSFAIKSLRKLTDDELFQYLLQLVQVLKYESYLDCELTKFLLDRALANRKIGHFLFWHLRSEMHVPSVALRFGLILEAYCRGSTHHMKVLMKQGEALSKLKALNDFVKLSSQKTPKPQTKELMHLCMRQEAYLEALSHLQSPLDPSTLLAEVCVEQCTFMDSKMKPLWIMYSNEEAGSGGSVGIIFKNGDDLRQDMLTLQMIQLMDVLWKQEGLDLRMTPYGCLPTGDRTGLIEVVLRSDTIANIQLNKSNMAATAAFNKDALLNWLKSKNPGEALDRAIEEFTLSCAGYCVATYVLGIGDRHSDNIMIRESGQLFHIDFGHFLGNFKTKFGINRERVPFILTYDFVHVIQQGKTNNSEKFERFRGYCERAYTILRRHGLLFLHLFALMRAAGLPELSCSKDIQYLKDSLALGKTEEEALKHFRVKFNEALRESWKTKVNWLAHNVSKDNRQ
Sequence of PI3 kinase isoform δ (P27986 whole entry partner, canonical isoform): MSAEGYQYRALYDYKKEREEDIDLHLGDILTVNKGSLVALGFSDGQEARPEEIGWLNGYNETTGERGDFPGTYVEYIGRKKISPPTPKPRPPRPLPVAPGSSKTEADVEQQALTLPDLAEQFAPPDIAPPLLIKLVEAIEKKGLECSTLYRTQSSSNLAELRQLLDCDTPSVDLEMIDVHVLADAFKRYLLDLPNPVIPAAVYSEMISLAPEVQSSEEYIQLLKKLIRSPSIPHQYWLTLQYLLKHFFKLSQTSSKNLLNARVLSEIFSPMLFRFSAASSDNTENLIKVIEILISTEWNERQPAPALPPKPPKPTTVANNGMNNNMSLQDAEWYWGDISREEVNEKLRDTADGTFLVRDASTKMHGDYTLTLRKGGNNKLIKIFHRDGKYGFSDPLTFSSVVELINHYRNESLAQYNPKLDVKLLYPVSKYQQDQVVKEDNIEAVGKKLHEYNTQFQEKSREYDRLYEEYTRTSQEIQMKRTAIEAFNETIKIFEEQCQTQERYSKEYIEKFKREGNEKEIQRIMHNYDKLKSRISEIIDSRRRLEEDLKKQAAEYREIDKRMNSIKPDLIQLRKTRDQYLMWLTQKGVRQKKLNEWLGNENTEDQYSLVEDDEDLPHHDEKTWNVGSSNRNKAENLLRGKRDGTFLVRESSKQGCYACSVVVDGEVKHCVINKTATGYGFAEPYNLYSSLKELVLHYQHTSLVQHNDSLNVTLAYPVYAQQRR
Sequence of PI3Kα mutation E545K (P42336 whole entry E545K): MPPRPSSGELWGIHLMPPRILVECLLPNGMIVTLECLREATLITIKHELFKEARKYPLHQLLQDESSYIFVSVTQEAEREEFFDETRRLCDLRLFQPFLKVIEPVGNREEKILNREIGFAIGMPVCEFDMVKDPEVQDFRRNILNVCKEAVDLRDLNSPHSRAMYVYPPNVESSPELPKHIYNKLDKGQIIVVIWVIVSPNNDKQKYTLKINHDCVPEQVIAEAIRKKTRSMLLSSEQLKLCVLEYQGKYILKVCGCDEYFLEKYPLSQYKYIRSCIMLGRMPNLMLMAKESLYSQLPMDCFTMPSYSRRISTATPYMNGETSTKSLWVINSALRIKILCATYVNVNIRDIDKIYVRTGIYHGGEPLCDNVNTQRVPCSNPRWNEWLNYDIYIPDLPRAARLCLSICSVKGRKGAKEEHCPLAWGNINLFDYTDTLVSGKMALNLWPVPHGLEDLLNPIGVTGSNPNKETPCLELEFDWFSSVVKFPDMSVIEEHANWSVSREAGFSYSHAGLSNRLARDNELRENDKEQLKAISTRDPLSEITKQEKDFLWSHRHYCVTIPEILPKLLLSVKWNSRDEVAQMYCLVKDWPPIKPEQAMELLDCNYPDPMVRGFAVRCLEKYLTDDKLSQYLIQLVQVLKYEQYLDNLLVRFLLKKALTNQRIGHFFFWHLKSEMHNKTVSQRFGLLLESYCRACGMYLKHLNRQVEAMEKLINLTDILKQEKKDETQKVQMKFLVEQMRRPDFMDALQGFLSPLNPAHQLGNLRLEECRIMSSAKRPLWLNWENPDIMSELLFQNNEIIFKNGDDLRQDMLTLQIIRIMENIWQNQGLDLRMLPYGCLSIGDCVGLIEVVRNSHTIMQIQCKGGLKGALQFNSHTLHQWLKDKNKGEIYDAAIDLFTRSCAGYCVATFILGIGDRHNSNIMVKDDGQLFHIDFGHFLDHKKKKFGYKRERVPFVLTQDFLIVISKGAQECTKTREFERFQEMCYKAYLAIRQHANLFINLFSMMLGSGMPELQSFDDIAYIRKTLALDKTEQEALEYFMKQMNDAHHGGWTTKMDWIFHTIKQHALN
Sequence of PI3Kα mutation E545K (P27986 whole entry partner): as the sequence (P27986 whole entry partner, canonical isoform) above
Sequence of PI3 kinase isoform γ (P48736 whole entry, the tested form may be a part, canonical isoform): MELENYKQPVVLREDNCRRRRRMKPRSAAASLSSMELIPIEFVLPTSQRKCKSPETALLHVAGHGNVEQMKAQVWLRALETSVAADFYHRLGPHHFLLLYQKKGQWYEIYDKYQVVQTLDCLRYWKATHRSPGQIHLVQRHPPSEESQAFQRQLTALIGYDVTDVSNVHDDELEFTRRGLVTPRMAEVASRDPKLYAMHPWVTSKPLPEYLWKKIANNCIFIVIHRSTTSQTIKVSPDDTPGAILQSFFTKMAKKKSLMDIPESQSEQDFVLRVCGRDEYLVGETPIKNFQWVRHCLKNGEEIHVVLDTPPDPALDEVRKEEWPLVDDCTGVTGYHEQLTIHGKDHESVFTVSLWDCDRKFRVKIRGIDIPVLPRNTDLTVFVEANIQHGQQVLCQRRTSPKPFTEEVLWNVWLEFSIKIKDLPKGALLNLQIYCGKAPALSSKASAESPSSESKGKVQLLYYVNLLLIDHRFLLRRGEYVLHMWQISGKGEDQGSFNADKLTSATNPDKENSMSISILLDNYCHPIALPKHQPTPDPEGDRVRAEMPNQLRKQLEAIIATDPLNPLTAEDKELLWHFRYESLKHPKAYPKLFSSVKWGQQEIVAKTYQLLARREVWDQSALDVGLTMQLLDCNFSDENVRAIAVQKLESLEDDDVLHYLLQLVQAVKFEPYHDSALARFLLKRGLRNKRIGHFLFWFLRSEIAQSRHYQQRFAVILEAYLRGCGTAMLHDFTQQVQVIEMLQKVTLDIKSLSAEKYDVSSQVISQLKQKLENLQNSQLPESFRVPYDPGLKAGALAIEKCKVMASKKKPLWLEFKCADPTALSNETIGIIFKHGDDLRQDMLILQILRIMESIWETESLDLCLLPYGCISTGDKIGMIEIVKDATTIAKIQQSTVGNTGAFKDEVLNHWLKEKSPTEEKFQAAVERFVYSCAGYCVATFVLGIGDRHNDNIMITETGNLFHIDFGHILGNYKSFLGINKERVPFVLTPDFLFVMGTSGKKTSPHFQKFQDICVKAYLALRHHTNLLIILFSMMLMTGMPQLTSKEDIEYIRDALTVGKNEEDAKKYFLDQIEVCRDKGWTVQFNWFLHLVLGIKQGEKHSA
T1 sequence (P42336 whole entry, species assumed): as the sequence (P42336 whole entry E545K) above, with K545E counted along it
T1 sequence (P27986 whole entry partner, species assumed): as the sequence (P27986 whole entry partner, canonical isoform) above
Sequence of PI3Kα mutation H1047R (P42336 whole entry H1047R): as the sequence (P42336 whole entry E545K) above, with K545E, H1047R counted along it
Sequence of PI3Kα mutation H1047R (P27986 whole entry partner): as the sequence (P27986 whole entry partner, canonical isoform) above

Structure (SMILES)	IC50 [1] [µM]	IC50 [2] [µM]	IC50 [3] [µM]	IC50 [4] [µM]	IC50 [5] [µM]	IC50 [6] [µM]	IC50 [7] [µM]	IC50 [8] [µM]	IC50 [9] [µM]	IC50 [10] [µM]	tumor growth inhibition relative to vehicle control group [11]	IC50 [12] [µM]
CC(=O)Nc1cccc(-c2cnc3c(N4CCOCC4)nc(-c4cnc(N)nc4)nc3c2)c1F [Example 52, N-(3-(2-(2-amino-pyrimidin-5-yl)-4-morpholinopyrido[3,2-d]pyrimidin-7-yl)-2-fluorophenyl)acetamide]	< 0.05	< 0.05	< 0.1	< 0.1	< 0.1	< 0.1	–	–	–	–	–	–
CC(=O)Nc1cc(-c2cnc3c(N4CCOCC4)nc(-c4cnc(N)nc4)nc3c2)ccc1F [Example 119, N-(5-(2-(2-amino-pyrimidin-5-yl)-4-morpholinopyrido[3,2-d]-pyrimidin-7-yl)-2-fluorophenyl)acetamide]	< 0.05	< 0.05	< 0.1	0.1 to 0.5	< 0.1	< 0.1	–	–	–	–	–	–
C[C@H](O)C(=O)Nc1cccc(-c2cnc3c(N4CCOCC4)nc(-c4cnc(N)nc4)nc3c2)c1 [Example 47, (S)-N-(3-(2-(2-amino-pyrimidin-5-yl)-4-morpholinopyrido[3,2-d]pyrimidin-7-yl)phenyl)-2-hydroxypropanamide]	< 0.05	< 0.05	< 0.1	–	–	0.1 to 0.5	< 0.5	< 1	< 0.05	< 0.05	–	–
CC(C)(C#N)C(=O)Nc1cccc(-c2cnc3c(N4CCOCC4)nc(-c4cnc(N)nc4)nc3c2)c1 [Example 49, N-(3-(2-(2-amino-pyrimidin-5-yl)-4-morpholinopyrido[3,2-d]pyrimidin-7-yl)phenyl)-2-cyano-2-methylpropanamide]	< 0.05	< 0.05	0.1 to 0.5	< 0.1	< 0.1	< 0.1	< 0.5	< 1	< 0.05	< 0.05	–	–
CS(=O)(=O)c1cccc(-c2ccc3c(N4CCOCC4)nc(-c4cnc(N)nc4)nc3c2)c1 [Example 1, 5-(7-(3-(Methylsulfonyl)phenyl)-4-morpholinoquinazolin-2-yl)pyrimidin-2-amine]	0.05 to 0.2	0.05 to 0.2	0.501 to 5	0.1 to 0.5	0.1 to 0.5	0.501 to 5	–	–	–	–	–	–
CC(=O)OC(C)OC(=O)N(C(C)=O)c1cccc(-c2cnc3c(N4CCOCC4)nc(-c4cnc(N)nc4)nc3c2)c1 (stereo not drawn) [Example 120, 1-((acetyl(3-(2-(2-amino-pyrimidin-5-yl)-4-morpholinopyrido[3,2-d]-pyrimidin-7-yl)-phenyl)carbamoyl)oxy) ethyl acetate]	–	–	–	–	–	–	–	–	–	–	more than 70%	–
Nc1ncc(-c2nc(N3CCOCC3)c3ncc(-c4cccnc4F)cc3n2)cn1 [Example 24, 5-(7-(2-fluoropyridin-3-yl)-4-morpholino-pyrido[3,2-d]pyrimidin-2-yl)pyrimidin-2-amine]	< 0.05	0.05 to 0.2	0.1 to 0.5	0.501 to 5	0.1 to 0.5	0.1 to 0.5	–	–	–	–	–	–
Cc1ccc(C(=O)Nc2cccc(-c3cnc4c(N5CCOCC5)nc(-c5cnc(N)nc5)nc4c3)c2)o1 [Example 59, N-(3-(2-(2-amino-pyrimidin-5-yl)-4-morpholinopyrido[3,2-d]pyrimidin-7-yl)phenyl)-5-methylfuran-2-carboxamide]	< 0.05	< 0.05	0.1 to 0.5	< 0.1	< 0.1	0.1 to 0.5	–	–	–	–	–	–
CC(C)(O)C(=O)Nc1cccc(-c2cnc3c(N4CCOCC4)nc(-c4cnc(N)nc4)nc3c2)c1 [Example 48, N-(3-(2-(2-amino-pyrimidin-5-yl)-4-morpholinopyrido[3,2-d]pyrimidin-7-yl)phenyl)-2-hydroxy-2-methylpropanamide]	< 0.05	< 0.05	0.1 to 0.5	–	–	0.1 to 0.5	< 0.5	< 1	< 0.05	< 0.05	–	–
Cn1cc(-c2cnc3c(N4CCOCC4)nc(-c4cnc(N)nc4)nc3c2)cn1 [Example 22, 5-(7-(1-methyl-1H-pyrazol-4-yl)-4-morpholinopyrido[3,2-d]-pyrimidin-2-yl)pyrimidin-2-amine]	< 0.05	< 0.05	0.1 to 0.5	0.501 to 5	0.1 to 0.5	< 0.1	–	–	–	–	–	–
CS(=O)(=O)Nc1cccc(-c2cnc3c(N4CCOCC4)nc(-c4cnc(N)nc4)nc3c2)c1 [Example 21, N-(3-(2-(2-amino-pyrimidin-5-yl)-4-morpholinopyrido[3,2-d]-pyrimidin-7-yl)phenyl)-methanesulfonamide]	< 0.05	< 0.05	0.1 to 0.5	0.1 to 0.5	–	< 0.1	< 0.5	–	< 0.05	< 0.05	–	< 0.5

— US9145411B2, “Substituted amino-pyrimidine derivatives” (Asana Biosciences, LLC, priority 2012, dated 2015)
